# Results: patent US10392391B2 (Vertex Pharmaceuticals Incorporated, priority 2012, dated 2019)
# Target: ATR kinase (full-length ATR) (Homo sapiens (Human), UniProt Q13535)
# Test: ATR inhibition assay (radioactive-phosphate incorporation)
# Type: biochemical
# Conditions: not given
# Method in brief: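 Radiometric 33P incorporation by 5 nM full-length ATR into 800 μM target peptide with 10 μM [γ-33P]ATP, in 50 mM Tris/HCl pH 7.5, 10 mM MgCl2, 1 mM DTT, 7% DMSO, 25° C. Compound pre-incubated 10 minutes; reaction stopped after 24 hours, captured on phosphocellulose. Ki(app) from non-linear regression of initial rates.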
# Sequence of ATR kinase (full-length ATR) (Q13535 whole entry): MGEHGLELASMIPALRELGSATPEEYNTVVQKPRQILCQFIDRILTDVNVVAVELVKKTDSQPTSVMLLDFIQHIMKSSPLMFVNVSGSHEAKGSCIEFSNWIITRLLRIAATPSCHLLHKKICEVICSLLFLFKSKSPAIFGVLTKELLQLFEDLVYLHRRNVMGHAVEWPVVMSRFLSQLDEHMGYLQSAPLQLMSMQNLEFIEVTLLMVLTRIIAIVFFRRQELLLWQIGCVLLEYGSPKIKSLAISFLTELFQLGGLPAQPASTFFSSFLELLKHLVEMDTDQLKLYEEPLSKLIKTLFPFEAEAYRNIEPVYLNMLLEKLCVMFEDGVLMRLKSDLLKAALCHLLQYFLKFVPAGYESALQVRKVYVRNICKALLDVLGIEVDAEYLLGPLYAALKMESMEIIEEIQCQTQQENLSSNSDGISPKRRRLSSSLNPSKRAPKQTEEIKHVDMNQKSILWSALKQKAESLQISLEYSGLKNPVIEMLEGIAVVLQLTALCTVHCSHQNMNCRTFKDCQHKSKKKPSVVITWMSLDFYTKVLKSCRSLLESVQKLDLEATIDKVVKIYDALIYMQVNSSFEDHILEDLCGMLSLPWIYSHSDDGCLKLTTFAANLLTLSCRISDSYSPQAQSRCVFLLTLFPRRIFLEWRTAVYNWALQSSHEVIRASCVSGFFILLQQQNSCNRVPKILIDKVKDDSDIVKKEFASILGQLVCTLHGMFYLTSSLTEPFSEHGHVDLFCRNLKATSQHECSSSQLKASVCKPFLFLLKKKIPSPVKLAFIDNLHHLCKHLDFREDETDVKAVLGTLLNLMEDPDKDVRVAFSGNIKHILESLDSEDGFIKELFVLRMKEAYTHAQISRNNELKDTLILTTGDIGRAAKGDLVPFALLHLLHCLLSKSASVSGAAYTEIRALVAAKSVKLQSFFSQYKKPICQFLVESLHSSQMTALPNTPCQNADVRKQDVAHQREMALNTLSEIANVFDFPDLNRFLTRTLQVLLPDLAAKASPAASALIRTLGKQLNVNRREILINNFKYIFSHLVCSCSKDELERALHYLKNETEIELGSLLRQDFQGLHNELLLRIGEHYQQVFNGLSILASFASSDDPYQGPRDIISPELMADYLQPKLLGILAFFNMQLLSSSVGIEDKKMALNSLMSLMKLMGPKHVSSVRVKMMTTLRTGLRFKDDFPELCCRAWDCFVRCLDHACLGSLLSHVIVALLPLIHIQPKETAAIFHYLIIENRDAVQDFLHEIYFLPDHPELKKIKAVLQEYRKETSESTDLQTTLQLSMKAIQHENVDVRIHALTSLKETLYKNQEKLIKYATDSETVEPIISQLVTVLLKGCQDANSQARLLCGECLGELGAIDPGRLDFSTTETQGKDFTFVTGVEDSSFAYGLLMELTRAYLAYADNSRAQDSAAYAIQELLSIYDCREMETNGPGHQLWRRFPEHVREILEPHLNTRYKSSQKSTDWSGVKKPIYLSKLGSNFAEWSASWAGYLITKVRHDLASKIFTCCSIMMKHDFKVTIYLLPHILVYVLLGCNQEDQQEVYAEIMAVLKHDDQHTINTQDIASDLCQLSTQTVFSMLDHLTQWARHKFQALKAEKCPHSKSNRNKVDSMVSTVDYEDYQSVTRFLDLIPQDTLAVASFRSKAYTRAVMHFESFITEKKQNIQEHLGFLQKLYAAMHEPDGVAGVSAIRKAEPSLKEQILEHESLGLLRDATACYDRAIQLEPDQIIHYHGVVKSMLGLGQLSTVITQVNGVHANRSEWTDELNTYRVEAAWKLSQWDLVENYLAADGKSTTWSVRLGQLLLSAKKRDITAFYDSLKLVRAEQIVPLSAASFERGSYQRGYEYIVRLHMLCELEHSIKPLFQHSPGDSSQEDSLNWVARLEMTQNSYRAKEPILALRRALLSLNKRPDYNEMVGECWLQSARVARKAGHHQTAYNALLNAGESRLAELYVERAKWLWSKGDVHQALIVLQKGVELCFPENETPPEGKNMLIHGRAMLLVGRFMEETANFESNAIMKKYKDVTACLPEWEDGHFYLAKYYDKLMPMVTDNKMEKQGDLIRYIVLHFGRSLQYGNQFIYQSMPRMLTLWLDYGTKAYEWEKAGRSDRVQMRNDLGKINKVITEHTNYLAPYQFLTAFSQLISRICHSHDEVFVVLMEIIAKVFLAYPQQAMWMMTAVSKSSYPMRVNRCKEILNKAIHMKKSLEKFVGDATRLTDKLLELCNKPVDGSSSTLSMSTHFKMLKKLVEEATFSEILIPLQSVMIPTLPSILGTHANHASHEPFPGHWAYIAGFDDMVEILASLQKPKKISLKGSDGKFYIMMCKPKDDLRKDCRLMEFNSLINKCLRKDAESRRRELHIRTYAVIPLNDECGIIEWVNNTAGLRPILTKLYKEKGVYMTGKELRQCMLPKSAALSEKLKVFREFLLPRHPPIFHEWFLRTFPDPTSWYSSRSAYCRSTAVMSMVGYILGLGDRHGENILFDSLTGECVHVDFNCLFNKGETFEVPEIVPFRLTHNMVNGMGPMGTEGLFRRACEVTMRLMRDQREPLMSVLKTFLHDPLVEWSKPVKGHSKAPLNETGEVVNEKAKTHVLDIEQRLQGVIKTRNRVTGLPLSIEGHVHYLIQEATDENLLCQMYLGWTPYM
row,Ki [nM],Compound
1,1000 to 5000,"CN1CCC(Oc2c(Cl)cncc2NC(=O)c2c(N)nn3cc(Cl)cnc23)CC1 [I-O-46, 2-amino-6-chloro-N-(5-chloro-4-((1-methylpiperidin-4-yl)oxy)pyridin-3-yl)pyrazolo[1,5-a]pyrimidine-3-carboxamide]"
2,1000 to 5000,"CN(C)CCCOc1ccncc1NC(=O)c1c(N)nn2cc(Cl)cnc12 [I-O-52, 2-amino-6-chloro-N-(4-(3-(dimethylamino)propoxy)pyridin-3-yl)pyrazolo[1,5-a]pyrimidine-3-carboxamide]"

# Same assay, conditions: Ki(app), 5 nM full-length ATR, 10 μM ATP, 25° C.
row,Compound,Ki [nM]
1,"N#CCc1cnc2c(C(=O)Nc3cnccc3OCC(F)(F)F)c(N)nn2c1 [I-O-34, 2-amino-6-(cyanomethyl)-N-(4-(2,2,2-trifluoroethoxy)pyridin-3-yl)pyrazolo[1,5-a]pyrimidine-3-carboxamide]",< 10
2,"N#CCc1cnc2c(C(=O)Nc3cnccc3OC3CCC3)c(N)nn2c1 [I-O-36, 2-amino-6-(cyanomethyl)-N-(4-cyclobutoxypyridin-3-yl)pyrazolo[1,5-a]pyrimidine-3-carboxamide]",< 10
3,"N#CCc1cnc2c(C(=O)Nc3cnccc3OC3CCCCC3)c(N)nn2c1 [I-O-39, 2-amino-6-(cyanomethyl)-N-(4-(cyclohexyloxy)pyridin-3-yl)pyrazolo[1,5-a]pyrimidine-3-carboxamide]",< 10
4,"N#CCc1cnc2c(C(=O)Nc3cnccc3OC3CCCC3)c(N)nn2c1 [I-O-43, 2-amino-6-(cyanomethyl)-N-(4-(cyclopentyloxy)pyridin-3-yl)pyrazolo[1,5-a]pyrimidine-3-carboxamide]",< 10
5,"CN(C)CCOCCOc1ccncc1NC(=O)c1c(N)nn2cc(Cl)cnc12 [I-O-47, 2-amino-6-chloro-N-(4-(2-(2-(dimethylamino)ethoxy)ethoxy)pyridin-3-yl)pyrazolo[1,5-a]pyrimidine-3-carboxamide]",10 to 1000
6,"CN(C)CCOc1ccncc1NC(=O)c1c(N)nn2cc(Cl)cnc12 [I-O-48, 2-amino-6-chloro-N-(4-(2-(dimethylamino)ethoxy)pyridin-3-yl)pyrazolo[1,5-a]pyrimidine-3-carboxamide]",10 to 1000
7,"CN1CCCC(Oc2ccncc2NC(=O)c2c(N)nn3cc(Cl)cnc23)C1 (centres unmarked) [I-O-51, 2-amino-6-chloro-N-(4-((1-methylpiperidin-3-yl)oxy)pyridin-3-yl)pyrazolo[1,5-a]pyrimidine-3-carboxamide]",10 to 1000
8,"COCCOc1ccncc1NC(=O)c1c(N)nn2cc(Cl)cnc12 [I-O-55, 2-amino-6-chloro-N-(4-(2-methoxyethoxy)pyridin-3-yl)pyrazolo[1,5-a]pyrimidine-3-carboxamide]",10 to 1000
9,"CCOc1ccncc1NC(=O)c1c(N)nn2cc(Cl)cnc12 [I-O-56, 2-amino-6-chloro-N-(4-ethoxypyridin-3-yl)pyrazolo[1,5-a]pyrimidine-3-carboxamide]",10 to 1000
10,"Nc1nn2cc(Cl)cnc2c1C(=O)Nc1cnccc1OCCN1CCOCC1 [I-O-60, 2-amino-6-chloro-N-(4-(2-morpholinoethoxy)pyridin-3-yl)pyrazolo[1,5-a]pyrimidine-3-carboxamide]",10 to 1000
11,"Nc1nn2cc(Cl)cnc2c1C(=O)Nc1cnccc1OC1CN2CCC1CC2 (centres unmarked) [I-O-62, 2-amino-6-chloro-N-(4-(quinuclidin-3-yloxy)pyridin-3-yl)pyrazolo[1,5-a]pyrimidine-3-carboxamide]",10 to 1000
12,"CN1CC[C@@H](Oc2ccncc2NC(=O)c2c(N)nn3cc(Cl)cnc23)C1 [I-O-63, (R)-2-amino-6-chloro-N-(4-((1-methylpyrrolidin-3-yl)oxy)pyridin-3-yl)pyrazolo[1,5-a]pyrimidine-3-carboxamide]",10 to 1000
13,"CN1CCC(Oc2ccncc2NC(=O)c2c(N)nn3cc(Cl)cnc23)CC1 [I-O-64, 2-amino-6-chloro-N-(4-((1-methylpiperidin-4-yl)oxy)pyridin-3-yl)pyrazolo[1,5-a]pyrimidine-3-carboxamide]",10 to 1000
14,"COCCN1CCC[C@H](Oc2ccncc2NC(=O)c2c(N)nn3cc(Cl)cnc23)C1 [I-O-67, (S)-2-amino-6-chloro-N-(4-((1-(2-methoxyethyl)piperidin-3-yl)oxy)pyridin-3-yl)pyrazolo[1,5-a]pyrimidine-3-carboxamide]",10 to 1000

# Results, then the compound that gave them:
row,Ki [nM],Compound
1,< 10,"N#CCc1cnc2c(C(=O)Nc3cnccc3OC3CCOCC3)c(N)nn2c1 [I-O-30, 2-amino-6-(cyanomethyl)-N-(4-((tetrahydro-2H-pyran-4-yl)oxy)pyridin-3-yl)pyrazolo[1,5-a]pyrimidine-3-carboxamide]"
2,< 10,"N#CCc1cnc2c(C(=O)Nc3cnccc3O[C@@H]3CCOC3)c(N)nn2c1 [I-O-31, (R)-2-amino-6-(cyanomethyl)-N-(4-((tetrahydrofuran-3-yl)oxy)pyridin-3-yl)pyrazolo[1,5-a]pyrimidine-3-carboxamide]"
3,< 10,"N#CCc1cnc2c(C(=O)Nc3cnccc3OCC3CC3)c(N)nn2c1 [I-O-32, 2-amino-6-(cyanomethyl)-N-(4-(cyclopropylmethoxy)pyridin-3-yl)pyrazolo[1,5-a]pyrimidine-3-carboxamide]"
4,< 10,"N#CCc1cnc2c(C(=O)Nc3cnccc3OCCO)c(N)nn2c1 [I-O-33, 2-amino-6-(cyanomethyl)-N-(4-(2-hydroxyethoxy)pyridin-3-yl)pyrazolo[1,5-a]pyrimidine-3-carboxamide]"
5,< 10,"CC(C)Oc1ccncc1NC(=O)c1c(N)nn2cc(CC#N)cnc12 [I-O-35, 2-amino-6-(cyanomethyl)-N-(4-isopropoxypyridin-3-yl)pyrazolo[1,5-a]pyrimidine-3-carboxamide]"
6,< 10,"N#CCc1cnc2c(C(=O)Nc3cnccc3OC3COC3)c(N)nn2c1 [I-O-38, 2-amino-6-(cyanomethyl)-N-(4-(oxetan-3-yloxy)pyridin-3-yl)pyrazolo[1,5-a]pyrimidine-3-carboxamide]"
7,< 10,"N#CCc1cnc2c(C(=O)Nc3cnccc3OCCCO)c(N)nn2c1 [I-O-40, 2-amino-6-(cyanomethyl)-N-(4-(3-hydroxypropoxy)pyridin-3-yl)pyrazolo[1,5-a]pyrimidine-3-carboxamide]"
8,< 10,"N#CCc1cnc2c(C(=O)Nc3cnccc3OC3CCCOC3)c(N)nn2c1 (centres unmarked) [I-O-41, 2-amino-6-(cyanomethyl)-N-(4-((tetrahydro-2H-pyran-3-yl)oxy)pyridin-3-yl)pyrazolo[1,5-a]pyrimidine-3-carboxamide]"
9,< 10,"N#CCc1cnc2c(C(=O)Nc3cnccc3O[C@H]3CCOC3)c(N)nn2c1 [I-O-42, (S)-2-amino-6-(cyanomethyl)-N-(4-((tetrahydrofuran-3-yl)oxy)pyridin-3-yl)pyrazolo[1,5-a]pyrimidine-3-carboxamide]"
10,10 to 1000,"Nc1nn2cc(F)cnc2c1C(=O)Nc1cnccc1OC1CCS(=O)(=O)CC1 [I-O-45, 2-amino-N-(4-((1,1-dioxidotetrahydro-2H-thiopyran-4-yl)oxy)pyridin-3-yl)-6-fluoropyrazolo[1,5-a]pyrimidine-3-carboxamide]"
11,10 to 1000,"CN1CCC[C@@H]1COc1ccncc1NC(=O)c1c(N)nn2cc(Cl)cnc12 [I-O-49, (R)-2-amino-6-chloro-N-(4-((1-methylpyrrolidin-2-yl)methoxy)pyridin-3-yl)pyrazolo[1,5-a]pyrimidine-3-carboxamide]"
12,10 to 1000,"CN1CCC[C@H]1COc1ccncc1NC(=O)c1c(N)nn2cc(Cl)cnc12 [I-O-50, (S)-2-amino-6-chloro-N-(4-((1-methylpyrrolidin-2-yl)methoxy)pyridin-3-yl)pyrazolo[1,5-a]pyrimidine-3-carboxamide]"
13,10 to 1000,"Nc1nn2cc(Cl)cnc2c1C(=O)Nc1cnccc1OCCCO [I-O-53, 2-amino-6-chloro-N-(4-(3-hydroxypropoxy)pyridin-3-yl)pyrazolo[1,5-a]pyrimidine-3-carboxamide]"
14,10 to 1000,"Nc1nn2cc(Cl)cnc2c1C(=O)Nc1cnccc1O[C@@H]1CCOC1 [I-O-54, (R)-2-amino-6-chloro-N-(4-((tetrahydrofuran-3-yl)oxy)pyridin-3-yl)pyrazolo[1,5-a]pyrimidine-3-carboxamide]"
15,10 to 1000,"COc1ccncc1NC(=O)c1c(N)nn2cc(Cl)cnc12 [I-O-57, 2-amino-6-chloro-N-(4-methoxypyridin-3-yl)pyrazolo[1,5-a]pyrimidine-3-carboxamide]"
16,10 to 1000,"Nc1nn2cc(Cl)cnc2c1C(=O)Nc1cnccc1O[C@H]1CCOC1 [I-O-58, (S)-2-amino-6-chloro-N-(4-((tetrahydrofuran-3-yl)oxy)pyridin-3-yl)pyrazolo[1,5-a]pyrimidine-3-carboxamide]"
17,10 to 1000,"Nc1nn2cc(Cl)cnc2c1C(=O)Nc1cnccc1OCC(F)(F)F [I-O-59, 2-amino-6-chloro-N-(4-(2,2,2-trifluoroethoxy)pyridin-3-yl)pyrazolo[1,5-a]pyrimidine-3-carboxamide]"
18,10 to 1000,"Nc1nn2cc(Cl)cnc2c1C(=O)Nc1cnccc1OC1CCOCC1 [I-O-61, 2-amino-6-chloro-N-(4-((tetrahydro-2H-pyran-4-yl)oxy)pyridin-3-yl)pyrazolo[1,5-a]pyrimidine-3-carboxamide]"
19,10 to 1000,"Nc1nn2cc(Cl)cnc2c1C(=O)Nc1cnccc1OC1CCCOC1 (centres unmarked) [I-O-65, 2-amino-6-chloro-N-(4-((tetrahydro-2H-pyran-3-yl)oxy)pyridin-3-yl)pyrazolo[1,5-a]pyrimidine-3-carboxamide]"
20,10 to 1000,"Nc1nn2cc(Cl)cnc2c1C(=O)Nc1cnccc1OCCO [I-O-66, 2-amino-6-chloro-N-(4-(2-hydroxyethoxy)pyridin-3-yl)pyrazolo[1,5-a]pyrimidine-3-carboxamide]"
21,10 to 1000,"CN(C)CCOc1cc(Cl)ncc1NC(=O)c1c(N)nn2cc(Cl)cnc12 [I-O-68, 2-amino-6-chloro-N-(6-chloro-4-(2-(dimethylamino)ethoxy)pyridin-3-yl)pyrazolo[1,5-a]pyrimidine-3-carboxamide]"
22,10 to 1000,"CN1CC[C@H](Oc2ccncc2NC(=O)c2c(N)nn3cc(Cl)cnc23)C1 [I-O-69, (S)-2-amino-6-chloro-N-(4-((1-methylpyrrolidin-3-yl)oxy)pyridin-3-yl)pyrazolo[1,5-a]pyrimidine-3-carboxamide]"
